Test results taken from patent publication US10821110B2, “Composite preparation, containing novel 3-(4--(benzyloxy)phenyl)hex-4-inoic acid derivative and another active ingredient, for preventing or treating metabolic diseases” (HYUNDAI PHARM CO., LTD., priority 2014, dated 2020).
Read-outs that look alike come from different tables or passages of the source.

How the values were obtained:
[1] = system: male diet-induced obesity (DIO) mice; test: OGTT by co-administration with thiazolidinedione (TZD)-based drug; details: oral
Method: Here, as for a non-treated group, 5% carboxymethyl cellulose (CMC) was orally administered at the same dose. In addition, 10 mg/kg of rosiglitazone and pioglitazone, which are well known as thiazolidinedione (TZD)-based drugs, were administered alone. […] The saline and test materials were orally administered at 5 ml/kg.
After 60 minutes, glucose (4 g/kg) was orally administered at a dose of 5 ml/kg. The blood glucose was measured by using Accu-chek active strip (Roche diagnostic Co.).

human GPR40 = target: T1, human GPR40 (Homo sapiens, UniProt O14842); test: Activation of GPR40 protein: intracellular calcium change (Fluo-4, Flexstation 3) in transfected HEK-293 cells; assay type: cell-based; details: HEK-293 cells transfected with human GPR40
T1 construct: host or cells: HEK-293
Method: The activation of GPR40 protein by a novel 3-(4-(benzyloxy)phenyl)hex-4-ynoic acid derivative of the present invention was evaluated through the change in intracellular calcium concentration due to the activity of GPR40 protein. First, HEK-293 cells were transfected with human GPR40 DNA (Origene, RC218370) by using Fugene HD (Promega, E2311). […] After 24 hours, the cell culture medium was removed, and replaced with Dulbecco's Modified Eagle Medium (DMEM, 50 μl) supplemented with 1% fetal bovine serum (FBS). For the measurement of calcium concentration, 50 μL of Fluo-4 reagent (Invitrogen, F10471) was added to each well and cultured in a 37° C. incubator for 2 hours. […] Two hours after the initiation of the culture, the prepared samples were automatically injected into the cells using Flexstation 3 (Molecular Devices), and then, the change in intracellular calcium concentration was measured using SoftMax®Pro software for 120 seconds. Here, for a non-treated group, dimethylsulfoxide (DMSO) was injected into the cells to measure the change in calcium concentration. The GPR40 protein activity was calculated from the measured calcium concentration result values using equation 1 below, and the GPR40 activity (EC50 value) by the samples was obtained. […] GPR 40 activity=(intracellular calcium concentration increased by the sample)/(intracellular calcium concentration of the non-treated group)×100 [Equation 1]

Male Sprague Dawley rats = test: Oral glucose tolerance test (OGTT) 1; assay type: in vivo; details: Rattus norvegicus, 2 h; SD rats; 10 mg/kg oral; glucose 4 g/kg 30 minutes after; read-out: % AUC (reduction (%) of blood glucose AUC)
Method: Male Sprague Dawley rats aged 8-10 weeks old were acclimated for at least 7 days, and then only healthy animals were used for the oral glucose tolerance test (OGTT test). After fasting for 16-18 hours, five rats per group were randomly grouped and orally administered with the compounds prepared in Examples 2, 3, 4, 6, 9, 12, 14, 16, 25, 29, 36, 37, 41, 43, and 44 at a dose of 10 mg/kg each. Here, as for a non-treated group (vehicle), a solution (PEG 400/Tween 80/0.25% CMC, 5%/5%/90%, v/v/v) containing 5% polyethyleneglycol/5% tween 80/0.25% carboxymethylcelluluse (CMC) was orally administered at the same dose. Glucose (4 g/kg) was orally administered at a dose of 5 ml/kg 30 minutes after each sample was administered. Then, the blood glucose was measured by using Accu-chek active strip (Roche diagnostic Co.).

[2] = system: Male Sprague Dawley (SD) rats; test: OGTT by co-administration with SGLT2 inhibitor-based drug (empagliflozin); assay type: in vivo, rat
Method: The experimental results were expressed as mean and standard error (Mean±SE), and the differences between the control and the experimental groups were tested by one-way ANOVA (a Dunnett method) of “GraphPad Prism 4” software (Graphpad co., La Jolla, Calif., USA). Here, p<0.05 was considered statistically significant.

[3] = system: male Zucker diabetic fatty (ZDF) rats; test: OGTT by co-administration with biguanide-based drug (metformin), type II diabetic rat model; assay type: in vivo
[4] = system: Male Sprague Dawley (SD) rats; test: OGTT by co-administration with biguanide-based drug (metformin), SD rat model; assay type: in vivo
[5] = system: INS-1 cells (rat insulinoma cell line); test: Insulin secretion experiment; assay type: cell-based; details: 25 mM glucose
Method: INS-1 cells (rat insulinoma cell line) were seeded in a 24-well plate at 5×10^5 cells/well, and cultured for 48 hours. […] The amount of insulin secreted in the insulin ELISA kit (Morinaga) was measured using the supernatant of the cells after the experiment was ended (see Table 16 and FIG. 11).

[6] = system: Male Sprague Dawley (SD) rats; test: OGTT by co-administration with DPPIV inhibitor (linagliptin), SD rat model; assay type: in vivo; details: Example 9 3 mg/kg alone
Method: The blood glucose was measured by using Accu-chek active strip (Roche diagnostic Co.).

[7] = system: male diet-induced obesity (DIO) mice; test: OGTT by co-administration with DPPIV inhibitor (sitagliptin), mouse model; assay type: in vivo; details: oral
Method: Here, as for a non-treated group, 5% carboxymethyl cellulose (CMC) was orally administered at the same dose. […] Each test sample and 0.5% carboxymethyl cellulase (CMC) were orally administered at 5 ml/kg.

[8] = system: Male Sprague Dawley (SD) rats; test: Blood GLP-1 concentration increase after oral administration; assay type: in vivo, rat; details: Example 9 at 10-100 mg/kg, plasma after 20 minutes, FIG. 2
Method: After 20 minutes, about 0.5 ml of whole blood was collected by direct blood collection through cardiac injection, and the collected blood was immediately transferred to a sample tube treated with the dipeptidyl peptidase IV (DPPIV) inhibitor and ethylenediaminetetraacetic acid (EDTA), and placed in a container containing ice. The collected blood was centrifuged at 3600 rpm for 10 minutes to separate the plasma, and the separated plasma was measured for the plasma GLP-1 concentration through the GLP-1 ELISA kit (Millipore, USA).

[9] = system: male diet-induced obesity (DIO) mice; test: OGTT by co-administration with sulfonylurea-based drug (glimepiride); assay type: in vivo, mouse; details: oral
Method: Here, as for a non-treated group, 5% carboxymethyl cellulose (CMC) was orally administered at the same dose. In addition, 10 mg/kg of glimepiride, which is well known as a sulfonylurea-based drug, was administered alone. […] The saline and test materials were orally administered at 5 ml/kg.

[10] = intracellular calcium, read-out: EC50

T1 sequence (O14842 whole entry): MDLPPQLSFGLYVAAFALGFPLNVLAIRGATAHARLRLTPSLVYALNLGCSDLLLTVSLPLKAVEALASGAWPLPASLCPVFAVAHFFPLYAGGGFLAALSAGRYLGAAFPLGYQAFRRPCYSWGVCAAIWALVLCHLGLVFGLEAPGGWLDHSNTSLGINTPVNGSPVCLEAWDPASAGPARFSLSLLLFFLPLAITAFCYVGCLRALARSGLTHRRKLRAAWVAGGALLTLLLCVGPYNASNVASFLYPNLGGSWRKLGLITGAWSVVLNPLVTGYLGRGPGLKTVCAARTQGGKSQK

CCc1ccc(CCOc2ccc(CC3SC(=O)NC3=O)cc2)nc1 (stereo not drawn) [Pioglitazone, pioglitazone, reference compound]
Reduction (%) of blood glucose AUC ([1]; pioglitazone 10 mg/kg alone): 27.9%

CC#CC(CC(=O)O)c1ccc(OCc2cccc(C3=CCC(=O)CC3)c2)cc1 (stereo not drawn) [Example 4, 3-(4-(3-(4-oxocyclohex-1-enyl)benzyloxy)phenyl)hex-4-ynoic acid]
EC50 (human GPR40; [10]): > 300 nM
inhibition in vivo at 10 mg/kg (Male Sprague Dawley rats): 16.2%

OC[C@H]1O[C@@H](c2ccc(Cl)c(Cc3ccc(O[C@H]4CCOC4)cc3)c2)[C@H](O)[C@@H](O)[C@@H]1O [Empagliflozin, empagliflozin]
Reduction (%) of blood glucose AUC ([2]; empagliflozin 1 mg/kg alone): 6.5%
Reduction (%) of blood glucose AUC ([2]; empagliflozin 3 mg/kg alone): 9.2%
Reduction (%) of blood glucose AUC ([2]; empagliflozin 10 mg/kg alone): 29.5%

CC#C[C@@H](CC(=O)O)c1ccc(OCc2ccc(CN3CCCc4ccccc43)cc2)cc1 [Example 41, sodium (S)-3-(4-(4-((3,4-dihydroquinolin-1(2H)-yl)methyl)benzyloxy)phenyl)hex-4-ynoate]
EC50 (human GPR40; [10]): > 300 nM
inhibition in vivo at 10 mg/kg (Male Sprague Dawley rats): 23.7%

CC#C[C@@H](CC(=O)O)c1ccc(OCc2ccc(CN3CCN(c4ccc(OCCCS(C)(=O)=O)cc4)CC3)cc2)cc1 [Example 36, (S)-3-(4-(4-((4-(4-(3-(methylsulfonyl)propoxy)phenyl)piperazin-1-yl)methyl)benzyloxy)phenyl)hex-4-ynoic acid]
EC50 (human GPR40; [10]): > 300 nM
inhibition in vivo at 10 mg/kg (Male Sprague Dawley rats): 22.6%

CN(C)C(=N)N=C(N)N [Metformin, metformin]
Reduction (%) of blood glucose AUC ([3]; metformin 50 mg/kg alone): 21.7%
Reduction (%) of blood glucose AUC ([4]; metformin 10 mg/kg alone): 3.9%
Reduction (%) of blood glucose AUC ([4]; metformin 50 mg/kg alone): 7.3%
Reduction (%) of blood glucose AUC ([4]; metformin 100 mg/kg alone): 10.0%

COc1ccc(Cl)cc1C(=O)NCCc1ccc(S(=O)(=O)NC(=O)NC2CCCCC2)cc1 [Glibenclamide, glibenclamide]
Insulin ([5]; glibenclamide 0.1 μM alone, vehicle 58): 73 ng/mL
Insulin ([5]; glibenclamide 1 μM alone): 72 ng/mL

CC#C[C@@H](CC(=O)O)c1ccc(OCc2cccc(C3=CCC4(CC3)OCCO4)c2)cc1 [Example 9, L-lysine (3S)-3-(4-(3-(1,4-dioxaspiro[4.5]dec-7-en-8-yl)benzyloxy)phenyl)hex-4-ynoate]
inhibition in vivo at 10 mg/kg (Male Sprague Dawley rats): 24.7%
Reduction (%) of blood glucose AUC ([3]; oral, Example 9 1 mg/kg alone): 34.2%
Reduction (%) of blood glucose AUC ([3]; oral, Example 9 3 mg/kg alone): 40.9%
Reduction (%) of blood glucose AUC ([3]; oral, Example 9 10 mg/kg alone): 37.8%
Reduction (%) of blood glucose AUC ([2]; Example 9 3 mg/kg alone): 14.8%
Reduction (%) of blood glucose AUC ([1]; Example 9 10 mg/kg alone): 24.9%
Reduction (%) of blood glucose AUC ([1]; Example 9 30 mg/kg alone): 20.2%
Reduction (%) of blood glucose AUC [6]: 14.8%
Reduction (%) of blood glucose AUC ([7]; Example 9 30 mg/kg alone): 10.1%
Reduction (%) of blood glucose AUC ([7]; Example 9 100 mg/kg alone): 15.4%
Reduction (%) of blood glucose AUC ([4]; Example 9 3 mg/kg alone): 14.5%
blood GLP-1 concentration compared with the glucose treated group (Veh.) [8]: increased the blood GLP-1 concentration
Insulin ([5]; Example 9 0.01 μM alone): 99 ng/mL
Reduction (%) of blood glucose AUC ([9]; Example 9 10 mg/kg alone): 9.1%
Reduction (%) of blood glucose AUC ([9]; Example 9 30 mg/kg alone): 11.4%
Reduction (%) of blood glucose AUC ([9]; Example 9 100 mg/kg alone): 12.7%

CC#CC(CC(=O)O)c1ccc(OCc2cccc(C3=CCC4(CC3)OCCO4)c2)cc1 [Example 2, L-lysine 3-(4-(3-(1,4-dioxaspiro[4.5]dec-7-en-8-yl)benzyloxy)phenyl)hex-4-ynoate]
EC50 (human GPR40; [10]): > 300 nM
inhibition in vivo at 10 mg/kg (Male Sprague Dawley rats): 17.2%

CCC1=C(C)CN(C(=O)NCCc2ccc(S(=O)(=O)NC(=O)N[C@H]3CC[C@H](C)CC3)cc2)C1=O [Glimepiride, glimepiride, reference compound]
Reduction (%) of blood glucose AUC ([9]; glimepiride 10 mg/kg alone): 44.6%

CC#C[C@@H](CC(=O)O)c1ccc(OCc2ccc(CN3CCN(c4ncc(CCC)cn4)CC3)cc2)cc1 [Example 44, (S)-3-(4-(4-((4-(5-propylpyrimidin-2-yl)piperazin-1-yl)methyl)benzyloxy)phenyl)hex-4-ynoic acid]
EC50 (human GPR40; [10]): > 300 nM
inhibition in vivo at 10 mg/kg (Male Sprague Dawley rats): 22.8%

CC#CC(CC(=O)O)c1ccc(OCc2ccc(CN3CC=C(c4ccccc4)CC3)cc2)cc1 (stereo not drawn) [Example 14, 3-(4-(4-((4-phenyl-5,6-dihydropyridin-1(2H)-yl)methyl)benzyloxy)phenyl)hex-4-ynoic acid]
EC50 (human GPR40; [10]): < 200 nM
EC50 (human GPR40; values in text, read-out: concentration activating the GPR40 protein by 50% (EC50)): ≤ 200 nM
inhibition in vivo at 10 mg/kg (Male Sprague Dawley rats): 27.7%

CC#CC(CC(=O)O)c1ccc(OCc2ccc(CN3CCc4cc(OC)ccc4C3)cc2)cc1 (stereo not drawn) [Example 16, 3-(4-(4-((6-methoxy-3,4-dihydroisoquinolin-2(1H)-yl)methyl)benzyloxy)phenyl)hex-4-ynoic acid]
EC50 (human GPR40; [10]): > 300 nM
inhibition in vivo at 10 mg/kg (Male Sprague Dawley rats): 21.1%
